Laboratory results as given in US20220323406A1, “METHODS AND COMPOSITIONS FOR DIFFERENTIATING STEM CELLS” (Massachusetts Institute of Technology, priority 2019, published 2022).

Assays:
[1] = system: ENR+CD organoids (ISC to Paneth cell differentiation); assay: Primary screen: basal (non-stimulated) lysozyme secretion LYZ.NS, 2.5-D 384-well ENR+CD organoid differentiation; type: cell-based, mouse; details: primary screen; for Z.LYZ.NS: standard z score
From the text: (§1) High-throughput screening.

[2] = system: ENR+CD organoids (ISC to Paneth cell differentiation); assay: Primary screen: CCh-stimulated lysozyme secretion LYZ.S, 2.5-D 384-well ENR+CD organoid differentiation; type: cell-based, mouse; details: primary screen
From the text: as §1

ENR+CD organoids = assay: Primary screen: ATP (CellTiter-Glo 3D, CTG) cell number/viability, 2.5-D 384-well ENR+CD organoids; details: primary screen; for Z.CTG: standard z score;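 on all read-outs here: compounds given at plating and again on day 3 over a 6-day differentiation from ENR+CV stem-cell-enriched precursors, ATP measured on day 6, plate median as control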
[3] = dose 0.08 uM, FC relative to plate median
[4] = dose 0.40 uM, FC relative to plate median
[5] = dose 2.00 uM, FC relative to plate median
[6] = dose 10.00 uM, FC relative to plate median

| Substance | Dose.FC.LYZ.NS ([1]; dose 0.08 uM) [log2 fold change] | Z.LYZ.NS (standard z score) ([1]; dose 0.08 uM) | Dose.FC.LYZ.NS ([1]; dose 0.40 uM) [log2 fold change] | Z.LYZ.NS (standard z score) ([1]; dose 0.40 uM) | Dose.FC.LYZ.NS ([1]; dose 2.00 uM) [log2 fold change] | Z.LYZ.NS (standard z score) ([1]; dose 2.00 uM) | Dose.FC.LYZ.NS ([1]; dose 10.00 uM) [log2 fold change] | Z.LYZ.NS (standard z score) ([1]; dose 10.00 uM) | Dose.FC.LYZ.S ([2]; dose 0.08 uM) [log2 fold change] | Dose.FC.LYZ.S ([2]; dose 0.40 uM) [log2 fold change] | Dose.FC.LYZ.S ([2]; dose 2.00 uM) [log2 fold change] | Dose.FC.LYZ.S ([2]; dose 10.00 uM) [log2 fold change] | Dose.FC.CTG (ENR+CD organoids; dose 0.08 uM) [log2 fold change] | Z.CTG (standard z score) (ENR+CD organoids; dose 0.08 uM) | Dose.FC.CTG (ENR+CD organoids; dose 0.40 uM) [log2 fold change] | Z.CTG (standard z score) (ENR+CD organoids; dose 0.40 uM) | Dose.FC.CTG (ENR+CD organoids; dose 2.00 uM) [log2 fold change] | Z.CTG (standard z score) (ENR+CD organoids; dose 2.00 uM) | Dose.FC.CTG (ENR+CD organoids; dose 10.00 uM) [log2 fold change] | Z.CTG (standard z score) (ENR+CD organoids; dose 10.00 uM) | further results |
| --- | --- | --- | --- | --- | --- | --- | --- | --- | --- | --- | --- | --- | --- | --- | --- | --- | --- | --- | --- | --- | --- |
| SNS-314 Mesylate | – | – | – | – | – | – | – | – | – | – | – | – | – | – | – | – | – | – | – | – | Dose.FC.LYZ.NS [1, 3]: −0.071 log2 fold change; Z.LYZ.NS ([1]; dose 0.08 uM): −0.620; Dose.FC.LYZ.NS [1, 4]: −0.059 log2 fold change; Z.LYZ.NS ([1]; dose 0.40 uM): −0.515; Dose.FC.LYZ.NS [1, 5]: −0.128 log2 fold change; Z.LYZ.NS ([1]; dose 2.00 uM): −1.111; Dose.FC.LYZ.NS [1, 6]: −0.127 log2 fold change; Z.LYZ.NS ([1]; dose 10.00 uM): −1.109; Dose.FC.LYZ.S [2, 3]: −0.115 log2 fold change; Dose.FC.LYZ.S [2, 4]: −0.103 log2 fold change; Dose.FC.LYZ.S [2, 5]: −0.133 log2 fold change; Dose.FC.LYZ.S [2, 6]: −0.198 log2 fold change; Dose.FC.CTG (ENR+CD organoids; [3]): −0.666 log2 fold change; Z.CTG (ENR+CD organoids; dose 0.08 uM): −1.591; Dose.FC.CTG (ENR+CD organoids; [4]): −0.777 log2 fold change; Z.CTG (ENR+CD organoids; dose 0.40 uM): −1.857; Dose.FC.CTG (ENR+CD organoids; [5]): −0.478 log2 fold change; Z.CTG (ENR+CD organoids; dose 2.00 uM): −1.142; Dose.FC.CTG (ENR+CD organoids; [6]): −0.620 log2 fold change; Z.CTG (ENR+CD organoids; dose 10.00 uM): −1.480 |
| VU 0357121 | 0.079 | 0.686 | −0.010 | −0.090 | 0.030 | 0.261 | −0.027 | −0.237 | 0.152 | 0.034 | 0.007 | −0.034 | 0.183 | 0.438 | 0.148 | 0.352 | 0.012 | 0.029 | −0.059 | −0.141 | – |
| VU 0364439 | 0.082 | 0.715 | 0.011 | 0.099 | 0.010 | 0.089 | −0.055 | −0.476 | 0.108 | 0.124 | −0.043 | −0.038 | 0.024 | 0.058 | −0.121 | −0.289 | −0.258 | −0.616 | 0.009 | 0.022 | – |
| VU 0364770 | 0.155 | 1.350 | 0.085 | 0.736 | 0.117 | 1.020 | 0.102 | 0.884 | 0.082 | 0.125 | 0.139 | 0.066 | 0.013 | 0.031 | 0.085 | 0.204 | 0.083 | 0.199 | −0.103 | −0.246 | – |
